Measured values: patent US11649259B2, “Polymorphic forms of deoxycytidine, compositions comprising the same and uses” (ZOGENIX MDS, INC., priority 2019, dated 2023)

Legend:
[1] = Stability of Form B by XRPD pattern after storage (no conversion to Form A); format: physicochemical
Description: “Stability”, as used herein, can be measured by confirming the Form B XRPD pattern of the material after a given storage time. Conversion of Form B to Form A deoxycytidine, as determined by)(RFD, indicates instability. Stability can also be measured by confirming compliance with the test attribute standards as outlined in Example 4. Test attributes include physical appearance, IR trace, HPLC trace for active and impurities, water content, residual solvent content, elemental impurities and microbial growth. One or more of these attributes can be measured after storage over a given period of time, e.g. 6 months, 12 months or more, and under various conditions, e.g. 25±2° C./60±5% relative humidity or 40±2° C./75±5% relative humidity).
XRPD data for a mixture of A and B dC isoforms (2DC (A+B mix)), the B isoform produced in the small-scale manufacturing run (2DC(7)/S-P-17001 initial) and the isolated A isoform is provided in Table 2. The stability Form B was confirmed by determining the XRPD after 12 months of storage (2DC(7)/S-P-17001 12 month).

[2] = Form B deoxycytidine 12-month stability study (Example 4); format: physicochemical; conditions: four lots; long-term storage 25±2° C./60±5% relative humidity and accelerated storage 40±2° C./75±5% relative humidity; measured at 3, 6, 9 and 12 months
Description: A study was conducted to determine the stability of Form B deoxycytidine prepared by the methods in Example 1 over a 12-month period. Four lots of material were studied: (1) and (2) were packaged in a polyethylene (PE) bag sealed with a cable tie, (3) was packed in a PE bag with silica gel sealed with a cable tie, and (4) was packaged in a PE drum sealed with a cap. […]
All attributes were measured initially (0 months) to confirm compliance with the standards above. Appearance, IR, HPLC and water content were then measured at 3, 6, 9 and 12 months to confirm compliance. Microbial content was measured again at 12 months.

- stability of Form B, XRPD pattern after storage ([1]; after 12 months of storage, lot 2DC(7)/S-P-17001, 4 kg scale): confirmed
- time for which the form is stable ([1]; stored in a sealed container at e.g. room temperature): at least 6 months
- changes in test attributes (appearance, IR, HPLC, water content, microbial content) from initial to 12 months [2]: no significant changes
Structure (SMILES): Nc1ccn([C@H]2C[C@H](O)[C@@H](CO)O2)c(=O)n1 [Form B deoxycytidine, Deoxycytidine (2′-Deoxycytidine, dC)]
